Results on two compounds are retold here after patent US20210275562A1, “CANCER TREATMENT METHODS” (priority 2020, published 2021).

For one data set, the system named is S phase cells. The experiment in a line: BRDU/EDU injection labelling of S phase cells in living animals. It counts as in vivo, mouse. An excerpt:
It has been estimated in the literature that the cell cycle would be between 12 hr and 2 days in the crypt cells of the gut. These are the cells that are constantly dividing and give rise to mature gut cells forming the lining of the intestinal tract. […] Both EDU and BRDU are incorporated only into DNA of cells actively synthesizing DNA, S phase cells. Both are rapidly removed from circulation if not incorporated into DNA, so that a cell containing EDU or BRDU in its DNA would have been in S phase at the time of injection, or shortly thereafter. Indeed, an injection of either marker is effectively a 1 hr pulse with that marker. BRDU is identified with an antibody stain, while EDU is identified by a separate chemical stain. Different fluorochromes are used to identify the two stains, so that cells which incorporated either, or both, can readily be identified. With the use of our image analysis approach, the labeling with each fluorochrome can be accurately quantitated.
Thus, with EDU and BRDU, it was possible to determine which cells had been in S phase at two different times. BRDU was normally injected intraperitoneally (IP) into animals at time zero. […] 40 minutes following the EDU injection the animals were euthanized and tissues collected, imbedded in paraffin, and stained. It was possible to tell which cells had been in S phase at the beginning of the experiment from the BRDU stain. […]

In a further data set the test system is crypt cells. The experiment in a line: Proof of principle: two EDU injections in mice given BRDU in drinking water. It counts as in vivo, mouse. How it is done:
The experiment to validate this procedure was designed as follows: Mice were given BRDU in their drinking water at the beginning of the experiments. This constant supply of BRDU would label all proliferative cells over the length of the experiment. 4 hr after BRDU-containing drinking water was given to the animals, two injections of EDU were given. These injections were spaced 5, 8, 11, 14, 17, and 20 hr apart in separate animals. At 40 min following the final injection tissue was collected, fixed, imbedded, stained, and analyzed as described above. The goal was to determine how many cells were labeled with BRDU and NOT WITH EDU. EDU in this experiment represents the toxic treatment. Any cell labelled with EDU would be expected to be killed by the appropriate S phase specific toxin. The surviving cells would, therefore, be identified by BRDU positive, EDU negative cells. As with many proof of principle experiments, this one has a drawback that must be considered. BRDU remains present in cells that differentiate and move up the villi towards the lumen of the gut. Cells on the verge of terminal differentiation would be labelled with BRDU but cease dividing prior to the administration of EDU. This would result in an over-estimate of the number of BRDU+ and EDU− cells (those that survive the treatments), particularly at later times in the analysis. […]

Consider `O=c1[nH]c(=O)n([C@H]2C[C@H](O)[C@@H](CO)O2)cc1Br` [BRDU, bromodeoxyuridine], for which, in the data set on S phase cells (mouse, in vivo), the “effective pulse length of the marker after one injection” value stood at 1 h.
`C#Cc1cn([C@H]2C[C@H](O)[C@@H](CO)O2)c(=O)[nH]c1=O` [EDU, 5-ethynyl-2′-deoxyuridine]: in the data set on crypt cells (two EDU injections spaced 14 hr apart), the “BRDU positive cells remaining unlabeled with EDU (cells proposed to survive treatment)” value was about 40%. In addition, in the data set with crypt cells (two EDU injections spaced 17 hr apart, may be overestimated), the “level of BRDU+ and EDU- cells (cells proposed to survive treatment)” value is listed as “remain high”. Further, in the data set on S phase cells (rapidly removed from circulation if not incorporated into DNA), the “effective pulse length of the marker after one injection” value came to 1 h.
